Laboratory results from PMC9945734 (BMC Medicine, 2023).
Where “and” joins values, the source holds several entries; their conditions need not be identical. Identical values can stand only once.

Tested on: PC-3-KQ and PC-3-KR cells
Assay: RNA-sequencing and differential gene expression
Format: cell-based, human
Parameters: CEP19 tpm_KQ_NTZ / CCNA1 tpm_KQ_NTZ / BTN3A3 tpm_KQ_NTZ / CAPSL tpm_KQ_NTZ / CELF3 tpm_KQ_NTZ / C5orf63 tpm_KQ_NTZ / tpm MSMP / tpm MYH7B / tpm CACNG8 / CNTNAP3B tpm_KQ_NTZ / IL21R tpm_KQ_NTZ / CYP8B1 tpm_KQ_NTZ / C2orf78 tpm_KQ_NTZ / CALB1 tpm_KQ_NTZ / COL4A3 tpm_KQ_NTZ / CFB tpm_KQ_NTZ / PFKFB1 tpm_KQ_NTZ / BTBD11 tpm_KQ_NTZ: scale not given here
Conditions: RNA-Seq
[1] = PC-3-KQ cells with NTZ, replicates NTZ1-3, listed as NTZ

SMILES: CC(=O)Oc1ccccc1C(=O)Nc1ncc([N+](=O)[O-])s1 [Nitazoxanide]
- tpm DMPK [1]: 0.419 and 0.3493 and 0.1665
- tpm DRP2 [1]: -0.6676 and -1.3 and -0.607
- tpm ECM2 [1]: -0.5146 (2×) and 0.2506
- tpm FAM186B [1]: -0.5789 and -0.1828 and -0.4779
- tpm FER1L6 [1]: -0.0478 and 0.008832 and -0.09563
- tpm FLT1 [1]: 0.161 and -0.1482 and -0.7906
- tpm FSD2 [1]: -0.9288 and -1.378 and -0.8049
- tpm FTH1 [1]: 1.05 and 1.051 and 1.128
- tpm FXYD3 [1]: -0.3733 and -0.2655 and -0.4971
- tpm GALNT12 [1]: 0.1641 and 0.2605 and 0.1597
- tpm GRAMD2A [1]: -1.217 and -0.8334 and -0.5772
- tpm HID1 [1]: 1.101 and 0.7299 and 0.9267
- tpm HPSE2 [1]: -0.4281 and -0.1645 and -0.06191
- tpm IDO1 [1]: -0.05198 and -0.1635 and 0.07694
- tpm IGDCC4 [1]: 1.025 and 0.5822 and 0.3088
- tpm INHBA [1]: -0.4046 and -0.5562 and -0.8145
- tpm INHBB [1]: 0.08661 and -0.02356 and -0.07924
- tpm KIAA1755 [1]: -0.4724 and -0.3852 and -0.1722
- tpm KLHDC7B [1]: 1.013 and 1.073 and 1.158
- tpm LOC105374299 [1]: 0.8275 and 1.276 and 1.486
- tpm LOC107987158 [1]: 0.1622 and -0.3121 and -1.443
- tpm LONRF2 [1]: 0.1017 (2×) and -0.7266
- tpm MAP7D3 [1]: 0.1661 and 0.1563 and -0.001507
- tpm MEF2C [1]: 0.3074 (2×) and -0.8164
- tpm MEOX1 [1]: -0.388 and -0.5893 and -0.8851
- tpm MINAR1 [1]: 1.487 and 0.4714 and 0.64
- tpm MSMP [1]: -0.1946 and -0.01672 and -0.03466
- tpm MUC4 [1]: 0.5142 and 1.164 and 1.212
- tpm MYH7B [1]: -0.4262 and -0.2568 and 0.1543
- tpm PDGFRL [1]: 0.618 and 0.4346 and 0.4486
- tpm PLEKHA7 [1]: -0.3096 and -0.2197 and -0.3271
- tpm PLEKHG1 [1]: -0.07347 and -0.05792 and -0.2
- tpm PRRT4 [1]: 0.01578 and 0.2412 and 0.04865
- tpm RORC [1]: 0.6069 and 0.189 and 1.342
- tpm RP1L1 [1]: -0.07855 and -0.3562 and -1.072
- tpm RPP25 [1]: 0.2387 and 0.2331 and 0.2609
- tpm SAT1 [1]: 0.7632 and 0.7179 and 0.7837
- tpm SAXO2 [1]: -1.3 and 0.5697 and 0.468
- tpm SERPINA5 [1]: 0.2889 and 0.09986 and -0.2457
- tpm SERPINB3 [1]: -1.23 and -0.7997 and -0.9984
- tpm SERPINF2 [1]: 0.3503 and 0.1655 and 0.444
- tpm SGK3 [1]: -0.2978 and 0.6129 and 0.5003
- tpm SLC22A4 [1]: -0.6184 and -1.014
- tpm SLFN11 [1]: -0.5865 and -0.5524 (2×)
- tpm SRPX [1]: 0.5121 and 0.498 and 0.6168
- tpm STARD4 [1]: 0.9661 and 0.7143
- tpm SVEP1 [1]: -0.8267 and -1.268 and -1.176
- tpm TBX2 [1]: 0.468 and 0.2574 and 0.908
- tpm TCN1 [1]: 0.4136 and 0.08826 and 0.5034
- tpm TNF [1]: 0.3176 and 0.1804
- tpm TNFRSF6B [1]: -0.5827 and 0.1186 and -0.2431
- tpm TNFSF14 [1]: 1.093 and 1.162 and 1.079
- tpm TRIM31 [1]: -0.6801 and -0.02951 and -0.5211
- tpm UGT2B7 [1]: -0.4066 and -0.3815 and -0.4168
- tpm XKRX [1]: -0.4846 and 0.05471 and 0.3317
- tpm ZNF28 [1]: 0.116 and -1.142 and -0.2155
- tpm ZNF302 [1]: -0.4799 and 0.1803 and -0.08669
- AADACL3 Change (KQ-Control vs KQ-NTZ) (PC-3-KQ cells): DOWN
- AADACL3 logFC (KQ-Control vs KQ-NTZ) (PC-3-KQ cells): -1.5511
- ABCA1 Change (KQ-Control vs KQ-NTZ) (PC-3-KQ cells): DOWN
- ABCA1 logFC (KQ-Control vs KQ-NTZ) (PC-3-KQ cells): -1.1023
- ABCB4 Change (KQ-Control vs KQ-NTZ) (PC-3-KQ cells): DOWN
- ABCB4 logFC (KQ-Control vs KQ-NTZ) (PC-3-KQ cells): -1.0876
- ADORA1 Change (KQ-Control vs KQ-NTZ) (PC-3-KQ cells): DOWN
- ADORA1 logFC (KQ-Control vs KQ-NTZ) (PC-3-KQ cells): -0.6297
- ANKRD36C Change (KQ-Control vs KQ-NTZ) (PC-3-KQ cells): DOWN
- ANKRD36C logFC (KQ-Control vs KQ-NTZ) (PC-3-KQ cells): -0.823
- ANKRD63 Change (KQ-Control vs KQ-NTZ) (PC-3-KQ cells): DOWN
- ANKRD63 logFC (KQ-Control vs KQ-NTZ) (PC-3-KQ cells): -0.8191
- ANXA8L1 Change (KQ-Control vs KQ-NTZ) (PC-3-KQ cells): DOWN
- ANXA8L1 logFC (KQ-Control vs KQ-NTZ) (PC-3-KQ cells): -1.2337
- APLN Change (KQ-Control vs KQ-NTZ) (PC-3-KQ cells): DOWN
- APLN logFC (KQ-Control vs KQ-NTZ) (PC-3-KQ cells): -0.8669
- ARL10 Change (KQ-Control vs KQ-NTZ) (PC-3-KQ cells): DOWN
- ARL10 logFC (KQ-Control vs KQ-NTZ) (PC-3-KQ cells): -0.6715
- ARX logFC (KQ-Control vs KQ-NTZ) (PC-3-KQ cells): 0.8688
- ASB2 Change (KQ-Control vs KQ-NTZ) (PC-3-KQ cells): DOWN
- ASB2 logFC (KQ-Control vs KQ-NTZ) (PC-3-KQ cells): -1.5518
- ASRGL1 Change (KQ-Control vs KQ-NTZ) (PC-3-KQ cells): DOWN
- ASRGL1 logFC (KQ-Control vs KQ-NTZ) (PC-3-KQ cells): -0.6209
